For assay [1], the system named is T-cell. In words: loss of vesicle association with mouse CD8+ T cells – mouse 2C CD8+ T cells, flow cytometry, dose response (AID 485284). It is filed as functional. (Flow cytometry measures light scatter and fluorescence of single cells or particles in a stream.)
In assay [2] the target is T1, Intestinal-type alkaline phosphatase (Homo sapiens, UniProt P09923). In words: Dose Response confirmation of uHTS hits from a small molecule inhibitors of human intestinal alkaline phosphatase via a luminescent assay. [Related pubchem assays (depositor defined):AID2544, AID2574]. It is filed as functional.
T1 sequence (P09923 whole entry): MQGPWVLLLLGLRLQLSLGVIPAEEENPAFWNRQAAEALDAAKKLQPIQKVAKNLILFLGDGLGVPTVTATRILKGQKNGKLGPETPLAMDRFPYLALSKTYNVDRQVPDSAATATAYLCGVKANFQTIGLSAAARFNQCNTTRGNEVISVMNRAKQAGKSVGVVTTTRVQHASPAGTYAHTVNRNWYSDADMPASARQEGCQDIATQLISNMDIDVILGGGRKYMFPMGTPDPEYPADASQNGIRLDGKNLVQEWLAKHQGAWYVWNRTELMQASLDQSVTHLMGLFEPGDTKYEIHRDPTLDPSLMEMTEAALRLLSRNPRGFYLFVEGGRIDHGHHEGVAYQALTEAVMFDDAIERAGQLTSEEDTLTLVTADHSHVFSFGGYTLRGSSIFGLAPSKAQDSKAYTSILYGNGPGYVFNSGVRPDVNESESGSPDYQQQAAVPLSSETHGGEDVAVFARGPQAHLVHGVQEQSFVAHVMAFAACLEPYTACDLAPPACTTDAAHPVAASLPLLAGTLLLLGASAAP
Assay [3] has as its target T1, Intestinal-type alkaline phosphatase. In words: human intestinal alkaline phosphatase activators, dose response, biochemical, luminescence, uHTS hits (AID 463120). It is filed as functional.
The target of assay [4] is X-box-binding protein 1 (Homo sapiens, UniProt P17861). It is filed as functional, Cricetulus griseus.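 Also: confirmatory dose-response counter-screen serving a CHOP assay.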
X-box-binding protein 1, sequence (P17861 whole entry): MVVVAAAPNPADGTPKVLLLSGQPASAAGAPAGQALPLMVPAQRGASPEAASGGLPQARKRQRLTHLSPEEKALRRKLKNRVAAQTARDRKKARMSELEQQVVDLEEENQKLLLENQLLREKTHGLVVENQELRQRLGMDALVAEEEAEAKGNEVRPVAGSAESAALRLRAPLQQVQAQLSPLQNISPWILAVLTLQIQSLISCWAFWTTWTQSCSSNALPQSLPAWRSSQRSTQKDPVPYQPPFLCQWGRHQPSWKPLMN
Assay [5] in a line: Trypanosoma cruzi growth suppression in host cells – NIH3T3 host cells, beta-gal luminescence, confirmation (AID 2044).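 Also: intracellular parasites grown in NIH/3T3 mouse fibroblasts as host cells; luminescent beta-galactosidase reporter signal from transgenic T. cruzi replicating inside host cells; inhibitors lower the luminescence signal.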 It is filed as functional, cell-based.
Assay [6] can be described thus: cells.
Assay [7] in a line: Counterscreen for AddAB inhibitors: absorbance-based bacterial cell-based high throughput dose response assay for inhibitors of bacterial viability. [Related pubchem assays (depositor defined):AID435030, AID449728, AID449731, AID488942, AID488955, AID488956]. It is filed as functional. On the technique in general: A counterscreen serves to expose hits that act by an unwanted route or on another target.

A short description of assay [8]: NIH3T3 cell viability loss – ATP luminescence, mouse fibroblasts, counter-screen, dose response (AID 2010).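 Also: cells exposed to compound for about 90 hours before reading.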 It is filed as functional, cell-based.
For assay [9], the target named is T2, Alkaline phosphatase, tissue-nonspecific isozyme (Homo sapiens, UniProt P05186).
T2 sequence (P05186 whole entry): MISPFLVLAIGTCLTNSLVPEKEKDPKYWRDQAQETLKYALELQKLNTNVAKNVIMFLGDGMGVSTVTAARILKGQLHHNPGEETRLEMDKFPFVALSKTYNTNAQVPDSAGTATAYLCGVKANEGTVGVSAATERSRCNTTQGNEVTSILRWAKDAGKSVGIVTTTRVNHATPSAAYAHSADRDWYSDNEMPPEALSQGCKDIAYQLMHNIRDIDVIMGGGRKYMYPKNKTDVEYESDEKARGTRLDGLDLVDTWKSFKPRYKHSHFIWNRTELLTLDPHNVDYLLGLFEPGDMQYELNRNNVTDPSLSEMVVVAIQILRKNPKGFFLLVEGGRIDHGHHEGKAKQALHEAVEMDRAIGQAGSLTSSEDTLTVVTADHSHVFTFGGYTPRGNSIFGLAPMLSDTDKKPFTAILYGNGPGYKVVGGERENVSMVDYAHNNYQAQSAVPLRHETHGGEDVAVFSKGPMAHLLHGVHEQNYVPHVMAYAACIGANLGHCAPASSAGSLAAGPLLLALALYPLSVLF
In words: potency against alkaline phosphatase TNAP – biochemical, luminescent, dose response, SAR follow-up (AID 1056).

The target of assay [10] is Glyceraldehyde-3-phosphate dehydrogenase (Homo sapiens, UniProt P04406).
Glyceraldehyde-3-phosphate dehydrogenase, sequence (P04406 whole entry): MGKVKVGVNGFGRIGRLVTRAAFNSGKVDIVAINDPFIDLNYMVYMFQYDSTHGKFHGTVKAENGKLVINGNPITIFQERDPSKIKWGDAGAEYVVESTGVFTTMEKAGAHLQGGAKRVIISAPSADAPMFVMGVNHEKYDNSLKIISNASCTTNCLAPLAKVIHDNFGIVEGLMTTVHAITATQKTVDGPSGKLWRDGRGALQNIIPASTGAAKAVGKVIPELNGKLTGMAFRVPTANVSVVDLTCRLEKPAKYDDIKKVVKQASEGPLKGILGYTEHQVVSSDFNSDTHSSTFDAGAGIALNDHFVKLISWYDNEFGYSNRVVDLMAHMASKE
Assay [11] deals with Paired box protein Pax-8 (Homo sapiens, UniProt Q06710). In words: PAX8 transcriptional activity inhibition in RMG-I – RMG-I cells, luciferase, cherry-pick, dose response (AID 687027).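 Also: luciferase reporter driven by Pax8 target thyroperoxidase promoter measured by SteadyGlo luminescence.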 It is filed as functional, cell-based.
Paired box protein Pax-8, sequence (Q06710 whole entry): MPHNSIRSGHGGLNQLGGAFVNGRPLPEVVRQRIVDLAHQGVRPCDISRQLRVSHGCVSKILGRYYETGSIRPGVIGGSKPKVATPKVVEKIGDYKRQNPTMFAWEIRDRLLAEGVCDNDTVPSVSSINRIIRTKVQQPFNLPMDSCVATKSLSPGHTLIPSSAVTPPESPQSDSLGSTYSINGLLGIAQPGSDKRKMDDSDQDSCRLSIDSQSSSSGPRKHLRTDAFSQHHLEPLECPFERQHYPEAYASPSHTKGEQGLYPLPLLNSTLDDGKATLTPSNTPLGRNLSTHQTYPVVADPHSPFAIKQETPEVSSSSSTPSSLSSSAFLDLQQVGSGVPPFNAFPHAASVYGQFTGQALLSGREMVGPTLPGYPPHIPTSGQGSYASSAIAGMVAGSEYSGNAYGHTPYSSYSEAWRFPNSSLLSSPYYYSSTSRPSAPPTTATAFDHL
Assay [12] is described as follows: HEK-293T cell viability reduction – luminescence, B-cell screen hits, cytotoxicity control for BCR NF-kB inhibitor project, dose response (AID 489021).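 Also: HEK-293T cells carrying an NF-kB luciferase reporter; cells exposed to compound for about 14 hours before viability readout.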 It is filed as functional, cell-based.
A short description of assay [13]: Luminescence Cell-Based Dose Response HTS to Identify Inhibitors of 5'UTR Stem-Loop Driven Prion Protein mRNA Translation in H4 Neuroglioblastoma Cells. [Related pubchem assays: 1827 (Project Summary), 1813 (Primary HTS)]. It is filed as functional.
The nature of assay [14]: alpha-synuclein stem-loop luciferase translation blockers – H4 neuroglioma cells, luminescence, confirmation (AID 1988). It is filed as functional, cell-based.
Assay [15] is described as follows: general cell-killing toxicity readout – plate reader, dry powder samples, cytotoxicity control for PAX8 inhibitor project, dose response (AID 743021). It is filed as functional, cell-based.
The target of assay [16] is T3, Coagulation factor XII (Homo sapiens, UniProt P00748).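 Also: activated factor XIIa alpha cleaving a fluorogenic AMC peptide substrate; inhibitor potency from loss of enzyme activity.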
T3 sequence (P00748 whole entry): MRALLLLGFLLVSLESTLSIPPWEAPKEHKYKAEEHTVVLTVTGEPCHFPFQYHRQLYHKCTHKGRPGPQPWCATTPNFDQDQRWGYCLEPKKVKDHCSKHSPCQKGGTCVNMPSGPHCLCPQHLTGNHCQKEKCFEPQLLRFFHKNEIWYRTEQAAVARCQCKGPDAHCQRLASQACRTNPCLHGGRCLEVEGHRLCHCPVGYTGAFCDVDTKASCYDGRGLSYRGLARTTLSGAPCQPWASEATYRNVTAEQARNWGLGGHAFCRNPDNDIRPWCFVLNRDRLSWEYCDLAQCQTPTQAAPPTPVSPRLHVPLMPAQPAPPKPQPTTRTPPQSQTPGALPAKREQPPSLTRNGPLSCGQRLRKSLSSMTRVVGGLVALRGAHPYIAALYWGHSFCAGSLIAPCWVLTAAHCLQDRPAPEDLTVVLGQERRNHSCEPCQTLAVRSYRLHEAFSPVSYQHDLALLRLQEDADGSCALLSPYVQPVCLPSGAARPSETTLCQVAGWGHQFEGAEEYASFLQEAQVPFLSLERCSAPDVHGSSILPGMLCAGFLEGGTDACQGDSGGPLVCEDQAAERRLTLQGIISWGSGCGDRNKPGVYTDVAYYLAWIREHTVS
It is filed as functional.

Molecules are shown by their SMILES. The source made the active and inactive calls.

In general, EC50 refers to the concentration that produces a half-maximal response. A word on the IC50: it is the concentration that gives 50% inhibition. Take `COc1ccc(C2=Nc3cc(C)ccc3OC2)cc1`: the EC50 in assay [1] was 8.65 µM (active). The IC50 in [2] is > 100 µM (inactive).

For the compound `CC(C)CCNc1ncnc2c1nnn2Cc1ccccc1Cl`, the EC50 in assay [3] is > 100 µM (inactive).

With `CCCc1nc2oc(C(=O)c3ccccc3)c(N)c2c2c1COC(C)(C)C2`, the “Absolute IC50 (XBP1)” value in assay [4] worked out at 10 µM.

Consider `O=C(NCc1cccnc1)c1ccc([N+](=O)[O-])o1`, for which the 50% effective concentration (EC50) in assay [5] is < 0.1 µM (active); in assay [6], 0.137 µM (active); in assay [8], > 60 µM (inconclusive). Moreover, the IC50 in [7] is > 39.5 µM (inactive).

For `COc1ccc(Cc2nnc(N3C(=O)[C@H]4CCCC[C@H]4C3=O)[nH]2)cc1`, the IC50 is > 100 µM (inactive) in [9] and > 100 µM (not active) in assay [10].

Usually AC50 stands for the concentration giving half of the maximal activity seen. Take `COc1ccc(OCc2cccc(C(=O)Nc3cc(C)on3)c2)cc1`: the AC50 in assay [11] was 4.14 µM (active); in [15], 43.9 µM (active). Further, the IC50 in [12] was > 80 µM (inactive). Moreover, the EC50 in assay [13] was > 60 µM (not active); in [14], 9.85 µM (inconclusive).

As for `COc1cccc(NC(C)(C)c2nnnn2-c2c(C)cccc2C)c1`, in [16], the IC50 was > 50 µM (inactive).
